According to ChEMBL document CHEMBL5715952 (Oncotarget, 2015):
Calls of active or inactive are those of the source. The rule behind the calls is not given here.

Assays:
cells [1] = conditions: Homo sapiens, Melphalan-resistant RPMI-8226 cell, 72 h
[2] = Ratio of IC50 for inhibition of FLT3/cKIT/FGFR3/VEGFR2/PDGFR/CSF1R in human RPMI-8226 cells assessed as reduction of cell viability to IC50 for inhibition of FLT3/cKIT/FGFR3/VEGFR2/PDGFR/CSF1R in human melphalan-resistant RPMI-8226 cells assessed as reduction of cell viability; conditions: time 72 hrs; condition multiple myeloma
[3] = Ratio of IC50 for inhibition of FLT3/cKIT/FGFR1/VEGFR2/PDGFR/CSF1R in human RPMI-8226 cells assessed as reduction of cell viability to IC50 for inhibition of FLT3/cKIT/FGFR1/VEGFR2/PDGFR/CSF1R in human RPMI-8226/BR resistant cells assessed as reduction of cell viability; conditions: condition multiple myeloma
[4] = Ratio of IC50 for inhibition of FLT3/cKIT/FGFR3/VEGFR1/PDGFR/CSF1R in human ANBL6 cells assessed as reduction of cell viability to IC50 for inhibition of FLT3/cKIT/FGFR3/VEGFR1/PDGFR/CSF1R in human ANBL6/BR resistant cells assessed as reduction of cell viability; conditions: condition multiple myeloma
[5] = Ratio of IC50 for inhibition of FLT3/cKIT/FGFR3/VEGFR1/PDGFR/CSF1R in human RPMI-8226 cells assessed as reduction of cell viability to IC50 for inhibition of FLT3/cKIT/FGFR3/VEGFR1/PDGFR/CSF1R in human RPMI-8226/BR resistant cells assessed as reduction of cell viability; conditions: condition multiple myeloma
[6] = Ratio of IC50 for inhibition of FLT3/cKIT/FGFR1/VEGFR3/PDGFR/CSF1R in human RPMI-8226 cells assessed as reduction of cell viability to IC50 for inhibition of FLT3/cKIT/FGFR1/VEGFR3/PDGFR/CSF1R in human melphalan-resistant RPMI-8226 cells assessed as reduction of cell viability; conditions: time 72 hrs; condition multiple myeloma
[7] = Ratio of IC50 for inhibition of FLT3/cKIT/FGFR1/VEGFR2/PDGFR/CSF1R in human ANBL6 cells assessed as reduction of cell viability to IC50 for inhibition of FLT3/cKIT/FGFR1/VEGFR2/PDGFR/CSF1R in human ANBL6/BR resistant cells assessed as reduction of cell viability; conditions: condition multiple myeloma
[8] = tested on: Bortezomib-resistant ANBL6; assay: cells; conditions: Homo sapiens, Bortezomib-resistant ANBL6, 72 h
[9] = Ratio of IC50 for inhibition of FLT3/cKIT/FGFR1/VEGFR3/PDGFR/CSF1R in human ANBL6 cells assessed as reduction of cell viability to IC50 for inhibition of FLT3/cKIT/FGFR1/VEGFR3/PDGFR/CSF1R in human ANBL6/BR resistant cells assessed as reduction of cell viability; conditions: condition multiple myeloma
cells [10] = conditions: Homo sapiens, Bortezomib-resistant RPMI-8226, 72 h
[11] = Ratio of IC50 for inhibition of FLT3/cKIT/FGFR1/VEGFR3/PDGFR/CSF1R in human RPMI-8226 cells assessed as reduction of cell viability to IC50 for inhibition of FLT3/cKIT/FGFR1/VEGFR3/PDGFR/CSF1R in human RPMI-8226/BR resistant cells assessed as reduction of cell viability; conditions: condition multiple myeloma
[12] = Ratio of IC50 for inhibition of FLT3/cKIT/FGFR3/VEGFR2/PDGFR/CSF1R in human RPMI-8226 cells assessed as reduction of cell viability to IC50 for inhibition of FLT3/cKIT/FGFR3/VEGFR2/PDGFR/CSF1R in human RPMI-8226/BR resistant cells assessed as reduction of cell viability; conditions: condition multiple myeloma
ANBL-6 [13] = assay: cells; conditions: Homo sapiens, ANBL-6, 72 h
[14] = Ratio of IC50 for inhibition of FLT3/cKIT/FGFR3/VEGFR1/PDGFR/CSF1R in human RPMI-8226 cells assessed as reduction of cell viability to IC50 for inhibition of FLT3/cKIT/FGFR3/VEGFR1/PDGFR/CSF1R in human melphalan-resistant RPMI-8226 cells assessed as reduction of cell viability; conditions: time 72 hrs; condition multiple myeloma
[15] = Ratio of IC50 for inhibition of FLT3/cKIT/FGFR3/VEGFR3/PDGFR/CSF1R in human ANBL6 cells assessed as reduction of cell viability to IC50 for inhibition of FLT3/cKIT/FGFR3/VEGFR3/PDGFR/CSF1R in human ANBL6/BR resistant cells assessed as reduction of cell viability; conditions: condition multiple myeloma
[16] = Ratio of IC50 for inhibition of FLT3/cKIT/FGFR1/VEGFR1/PDGFR/CSF1R in human ANBL6 cells assessed as reduction of cell viability to IC50 for inhibition of FLT3/cKIT/FGFR1/VEGFR1/PDGFR/CSF1R in human ANBL6/BR resistant cells assessed as reduction of cell viability; conditions: condition multiple myeloma
[17] = Ratio of IC50 for inhibition of FLT3/cKIT/FGFR3/VEGFR3/PDGFR/CSF1R in human RPMI-8226 cells assessed as reduction of cell viability to IC50 for inhibition of FLT3/cKIT/FGFR3/VEGFR3/PDGFR/CSF1R in human melphalan-resistant RPMI-8226 cells assessed as reduction of cell viability; conditions: time 72 hrs; condition multiple myeloma
RPMI-8226 = assay: Cytotoxicity against human RPMI-8226 cells assessed as reduction of cell growth incubated for 72 hrs by CellTiter 96 aqueous one solution cell proliferation assay; type: functional, cell-based; conditions: RPMI-8226, 72 h
U-266 = assay: cells; conditions: Homo sapiens, U-266, 72 h
[18] = Ratio of IC50 for inhibition of FLT3/cKIT/FGFR1/VEGFR1/PDGFR/CSF1R in human RPMI-8226 cells assessed as reduction of cell viability to IC50 for inhibition of FLT3/cKIT/FGFR1/VEGFR1/PDGFR/CSF1R in human melphalan-resistant RPMI-8226 cells assessed as reduction of cell viability; conditions: time 72 hrs; condition multiple myeloma
[19] = Ratio of IC50 for inhibition of FLT3/cKIT/FGFR1/VEGFR1/PDGFR/CSF1R in human RPMI-8226 cells assessed as reduction of cell viability to IC50 for inhibition of FLT3/cKIT/FGFR1/VEGFR1/PDGFR/CSF1R in human RPMI-8226/BR resistant cells assessed as reduction of cell viability; conditions: condition multiple myeloma
[20] = Ratio of IC50 for inhibition of FLT3/cKIT/FGFR3/VEGFR3/PDGFR/CSF1R in human RPMI-8226 cells assessed as reduction of cell viability to IC50 for inhibition of FLT3/cKIT/FGFR3/VEGFR3/PDGFR/CSF1R in human RPMI-8226/BR resistant cells assessed as reduction of cell viability; conditions: condition multiple myeloma
[21] = Ratio of IC50 for inhibition of FLT3/cKIT/FGFR1/VEGFR2/PDGFR/CSF1R in human RPMI-8226 cells assessed as reduction of cell viability to IC50 for inhibition of FLT3/cKIT/FGFR1/VEGFR2/PDGFR/CSF1R in human melphalan-resistant RPMI-8226 cells assessed as reduction of cell viability; conditions: time 72 hrs; condition multiple myeloma
[22] = Ratio of IC50 for inhibition of FLT3/cKIT/FGFR3/VEGFR2/PDGFR/CSF1R in human ANBL6 cells assessed as reduction of cell viability to IC50 for inhibition of FLT3/cKIT/FGFR3/VEGFR2/PDGFR/CSF1R in human ANBL6/BR resistant cells assessed as reduction of cell viability; conditions: condition multiple myeloma
ANBL-6 [23] = assay: Induction of apoptosis in wild-type human ANBL-6 cells assessed as viable at 20 nM incubated for 72 hrs by annexin V and 7-AAD staining by flow cytometry analysis (Rvb=59 %); type: functional
[24] = tested on: Bortezomib-resistant ANBL6; assay: Induction of apoptosis in human bortezomib-resistant ANBL6 cells assessed as early apoptosis at 20 nM incubated for 72 hrs by annexin V and 7-AAD staining by flow cytometry analysis (Rvb=15 %); type: functional
Proteasome [25] = assay: Inhibition of proteasome in human U-266 cells assessed as reduction of cell growth incubated for 72 hrs by CellTiter 96 aqueous one solution cell proliferation assay; conditions: U-266, 72 h
ANBL-6 [26] = assay: Induction of apoptosis in wild-type human ANBL-6 cells assessed as late apoptosis at 20 nM incubated for 72 hrs by annexin V and 7-AAD staining by flow cytometry analysis (Rvb=26 %); type: functional
Proteasome [27] = assay: Ratio of IC50 for inhibition of proteasome in human ANBL6 cells assessed as reduction of cell viability to IC50 for inhibition of proteasome in human ANBL6/BR resistant cells assessed as reduction of cell viability; conditions: condition multiple myeloma
Proteasome [28] = assay: Inhibition of proteasome in human bortezomib-resistant ANBL6 cells assessed as reduction of cell growth incubated for 72 hrs by CellTiter 96 aqueous one solution cell proliferation assay
Proteasome [29] = assay: Ratio of IC50 for inhibition of proteasome in human RPMI-8226 cells assessed as reduction of cell viability to IC50 for inhibition of proteasome in human RPMI-8226/BR resistant cells assessed as reduction of cell viability; conditions: condition multiple myeloma
[30] = tested on: Bortezomib-resistant ANBL6; assay: Induction of apoptosis in human bortezomib-resistant ANBL6 cells assessed as late apoptosis at 20 nM incubated for 72 hrs by annexin V and 7-AAD staining by flow cytometry analysis (Rvb=5 %); type: functional
[31] = tested on: Bortezomib-resistant ANBL6; assay: Induction of apoptosis in human bortezomib-resistant ANBL6 cells assessed as viable at 20 nM incubated for 72 hrs by annexin V and 7-AAD staining by flow cytometry analysis (Rvb=80 %); type: functional
Proteasome [32] = assay: Inhibition of proteasome in human RPMI-8226 cells assessed as reduction of cell growth incubated for 72 hrs by CellTiter 96 aqueous one solution cell proliferation assay; conditions: RPMI-8226, 72 h
[33] = target: T1, Bromodomain and extra-terminal motif (BET) (Homo sapiens) (UniProt P25440+O60885+Q58F21+Q15059); assay: Inhibition of BET in human bortezomib-resistant ANBL6 cells assessed as increase in protein NOXA expression level at 20 nM by immunoblot analysis; type: cell-based; conditions: Bortezomib-resistant ANBL6 cell
ANBL-6 [34] = assay: Induction of apoptosis in wild-type human ANBL-6 cells assessed as early apoptosis at 20 nM incubated for 72 hrs by annexin V and 7-AAD staining by flow cytometry analysis (Rvb=14 %); type: functional
[35] = target: T1, Bromodomain and extra-terminal motif (BET) (Homo sapiens); assay: Inhibition of BET in human ANBL-6 WT cells assessed as increase in protein NOXA expression level at 20 nM by immunoblot analysis; type: cell-based
Proteasome [36] = assay: Inhibition of proteasome in human ANBL-6 cells assessed as reduction of cell growth incubated for 72 hrs by CellTiter 96 aqueous one solution cell proliferation assay; conditions: ANBL-6, 72 h
[37] = target: T1, Bromodomain and extra-terminal motif (BET) (Homo sapiens); assay: Inhibition of BET in human ANBL-6 WT cells assessed as change in protein MYC expression level at 20 nM by immunoblot analysis; type: cell-based
Proteasome [38] = assay: Inhibition of proteasome in Melphalan Resistant human RPMI-8226 cells assessed as reduction of cell growth incubated for 72 hrs by CellTiter 96 aqueous one solution cell proliferation assay; conditions: Melphalan-resistant RPMI-8226 cell
[39] = target: T1, Bromodomain and extra-terminal motif (BET) (Homo sapiens); assay: Inhibition of BET in human bortezomib-resistant ANBL6 cells assessed as change in protein MYC expression level at 20 nM by immunoblot analysis; type: cell-based; conditions: Bortezomib-resistant ANBL6 cell
Proteasome [40] = assay: Inhibition of proteasome in bortezomib Resistant human RPMI-8226 cells assessed as reduction of cell growth incubated for 72 hrs by CellTiter 96 aqueous one solution cell proliferation assay; conditions: Bortezomib-resistant RPMI-8226, 72 h

## CN1CCN(c2ccc3nc(-c4c(N)c5c(F)cccc5[nH]c4=O)[nH]c3c2)CC1 [DOVITINIB]
Cells [1]
  IC50: 2950 nM
[2]
  Ratio IC50: 2.6
[3]
  Ratio IC50: 0.38
[4]
  Ratio IC50: 1.51
[5]
  Ratio IC50: 0.38
[6]
  Ratio IC50: 2.6
[7]
  Ratio IC50: 1.51
[8]
  IC50: 6610 nM
[9]
  Ratio IC50: 1.51
Cells [10]
  IC50: 5620 nM
[11]
  Ratio IC50: 0.38
[12]
  Ratio IC50: 0.38
ANBL-6 [13]
  IC50: 10000 nM
[14]
  Ratio IC50: 2.6
[15]
  Ratio IC50: 1.51
[16]
  Ratio IC50: 1.51
[17]
  Ratio IC50: 2.6
RPMI-8226
  IC50: 2140 nM
U-266
  IC50: 6760 nM
[18]
  Ratio IC50: 2.6
[19]
  Ratio IC50: 0.38
[20]
  Ratio IC50: 0.38
[21]
  Ratio IC50: 2.6
[22]
  Ratio IC50: 1.51

## CC(C)C[C@H](NC(=O)[C@H](Cc1ccccc1)NC(=O)c1cnccn1)B(O)O [BORTEZOMIB]
ANBL-6 [23]
  Activity: 7%
[24]
  Activity: 45%
Proteasome [25]
  IC50: […]
ANBL-6 [26]
  Activity: 22%
Proteasome [27]
  Ratio IC50: […]
Proteasome [28]
  IC50: […]
Proteasome [29]
  Ratio IC50: […]
[30]
  Activity: 6%
[31]
  Activity: 49%
Proteasome [32]
  IC50: […]
[33]
  inhibition: Active
ANBL-6 [34]
  Activity: 71%
[35]
  inhibition: Active
Proteasome [36]
  IC50: […]
[37]
  inhibition: inactive
Proteasome [38]
  IC50: […]
[39]
  inhibition: inactive
Proteasome [40]
  IC50: […]
